Results published in publication PMC12693167, “Design, Synthesis and Anticancer Activity of 6-Substituted-1-(3,4,5-trimethoxyphenyl)-1H-indole Against Tubulin Polymerisation” (Molecules, 2025).

How the values were obtained:
[1] = target: T1, purified porcine brain tubulin (Sus scrofa, UniProt P02554); assay: Biolayer interferometry (BLI) binding to tubulin; settings: immobilized tubulin, 1:1 binding model, mean ± SD, triplicate
T1 construct: purified porcine brain tubulin; from tissue; host or cells: porcine brain
T1 sequence (P02554 whole entry): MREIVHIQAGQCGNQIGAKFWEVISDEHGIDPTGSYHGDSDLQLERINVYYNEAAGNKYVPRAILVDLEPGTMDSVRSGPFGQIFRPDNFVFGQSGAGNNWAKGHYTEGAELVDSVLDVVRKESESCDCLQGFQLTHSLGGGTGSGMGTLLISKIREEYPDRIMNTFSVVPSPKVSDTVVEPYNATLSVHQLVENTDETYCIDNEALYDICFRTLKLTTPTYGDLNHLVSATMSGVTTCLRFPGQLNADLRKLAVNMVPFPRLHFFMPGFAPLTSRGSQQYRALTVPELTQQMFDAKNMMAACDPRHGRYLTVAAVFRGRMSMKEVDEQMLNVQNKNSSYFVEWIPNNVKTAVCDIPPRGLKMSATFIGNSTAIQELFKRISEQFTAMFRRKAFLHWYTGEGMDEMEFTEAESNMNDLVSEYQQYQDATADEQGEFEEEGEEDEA
T1 sequence (P02550 whole entry partner): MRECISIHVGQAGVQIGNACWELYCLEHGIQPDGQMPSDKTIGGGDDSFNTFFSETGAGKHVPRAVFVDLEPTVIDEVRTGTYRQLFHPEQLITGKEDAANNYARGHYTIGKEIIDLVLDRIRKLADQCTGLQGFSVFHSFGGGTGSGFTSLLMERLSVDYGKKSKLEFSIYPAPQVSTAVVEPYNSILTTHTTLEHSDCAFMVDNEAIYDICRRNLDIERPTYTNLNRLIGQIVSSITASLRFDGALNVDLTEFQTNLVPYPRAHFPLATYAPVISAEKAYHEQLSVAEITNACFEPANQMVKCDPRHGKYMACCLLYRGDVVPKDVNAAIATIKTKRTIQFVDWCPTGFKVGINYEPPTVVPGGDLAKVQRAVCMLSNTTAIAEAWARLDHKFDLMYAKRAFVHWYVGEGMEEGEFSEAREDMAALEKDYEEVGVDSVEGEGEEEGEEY
Method: To detect the direct interaction between the synthesized compounds and tubulin, biolayer interferometry (BLI) experiments were performed using purified porcine brain tubulin immobilized on Super Streptavidin (SSA) biosensor [30]. […] Association and dissociation kinetics were monitored in real time, and equilibrium dissociation constants (KD) were determined by global fitting of the sensorgrams to a 1:1 binding model. All measurements were conducted in triplicate, and results are reported as mean ± SD.
BLI assays were performed on an Octet RED96 instrument (FortéBio, Pall Life Sciences, Menlo Park, CA, USA) at 25 °C in PBS buffer supplemented with 0.02% (v/v) Tween-20 as the running buffer. Biotinylated tubulin proteins (3 μg/mL) were immobilized onto Super Streptavidin (SSA) biosensors. Association and dissociation were monitored for 60 s each. […] Reference subtraction was performed using sensors incubated in running buffer without protein loading to correct for baseline drift. Data were analyzed using Octet Data Analysis software (version 9.0), and equilibrium dissociation constants (KD) were determined by fitting the curves to a 1:1 binding model. All measurements were performed in triplicate, and results are reported as mean ± SD.
BLI assays were performed on an Octet RED96 instrument (FortéBio, Pall Life Sciences) at 25 °C in PBS buffer supplemented with 0.02% (v/v) Tween-20 as the running buffer. Biotinylated tubulin proteins (3 μg/mL) were immobilized onto Super Streptavidin (SSA) biosensors. Association and dissociation were monitored for 60 s […]
Reference subtraction was performed using sensors incubated in running buffer without protein loading to correct for baseline drift. Data were analyzed using Octet Data Analysis software (version 9.0), and equilibrium dissociation constants (KD) were determined by fitting the curves to a 1:1 binding model. All measurements were performed in triplicate, and results are reported as mean ± SD.

MCF-7 cells = assay: CCK-8 antiproliferative assay, MCF-7; type: cell-based; settings: Homo sapiens, MCF7; cell viability (CCK-8), 48 h
Method: (§1) To evaluate the anticancer potential of the synthesized compounds, a panel of six human and murine cancer cell lines representing different tissue origins was selected, including MCF-7 (human breast adenocarcinoma), MDA-MB-231 (human triple-negative breast cancer), A549 (human non-small cell lung cancer), HeLa (human cervical cancer), A375 (human melanoma), and B16-F10 (murine melanoma) (Table 2). […] DMSO was used as the vehicle control, and all experiments were performed in triplicate to ensure reproducibility.
(§2) Human breast cancer cells (MCF-7), human lung cancer cells (A549), human cervical cancer cells (HeLa), human triple-negative breast cancer cells (MDA-MB-231), and human malignant melanoma cells (A375) were cultured in DMEM. Mouse melanoma cells (B16F10) were maintained in RPMI-1640 medium. All media were supplemented with 10% fetal bovine serum and 1% penicillin-streptomycin (Life Technologies, Carlsbad, CA, USA) and maintained at 37 °C in a humidified atmosphere with 5% CO2.
(§3) The cytotoxicity of the test compounds was evaluated against MCF-7, A549, HeLa, MDA-MB-231, A375, and B16F10 using the CCK-8 assay. Cells were seeded into 96-well plates at a density of 5000 cells/well. After removing the medium, 100 μL of medium with 0.1% DMSO containing test compounds at different concentrations was added to each well and incubated at 37 °C for another 48 h. The CCK-8 solution was added and incubated for another 1 h, and then, the absorbance was detected with a microplate reader at a wavelength of 450 nm. The IC50 values were calculated by nonlinear regression analysis using GraphPad Prism 8.0.2. All the experiments were repeated at least three times.

MDA-MB-231 cells = assay: CCK-8 antiproliferative assay, MDA-MB-231; type: cell-based; settings: Homo sapiens, cell viability (CCK-8), 48 h
Method: as §1, §2, §3

A549 cells = assay: CCK-8 antiproliferative assay, A549; type: cell-based; settings: Homo sapiens, cell viability (CCK-8), 48 h
Method: as §1, §2, §3

HeLa cells = assay: CCK-8 antiproliferative assay, HeLa; type: cell-based; settings: Homo sapiens, cell viability (CCK-8), 48 h
Method: as §1, §2, §3

A375 cells = assay: CCK-8 antiproliferative assay, A375; type: cell-based; settings: Homo sapiens, A-375; cell viability (CCK-8), 48 h
Method: as §1, §2, §3

B16-F10 cells = assay: CCK-8 antiproliferative assay, B16-F10; type: cell-based, murine; settings: Mus musculus, cell viability (CCK-8), 48 h
Method: as §1, §2, §3

[2] = target: T2, Porcine brain tubulin protein (Sus scrofa, UniProt P02554); assay: In vitro tubulin polymerization assay; type: biochemical; settings: read-out: IC50, inhibitory effect on tubulin polymerization
T2 construct: Porcine brain tubulin protein was dissolved in EM buffer; from tissue; host or cells: porcine brain
T2 sequence (P02554 whole entry): as the sequence (P02554 whole entry) above
T2 sequence (P02550 whole entry partner): as the sequence (P02550 whole entry partner) above
Method: The ability of compound 3g to disrupt microtubule dynamics was assessed using an in vitro tubulin polymerization assay.
Porcine brain tubulin protein was dissolved in EM buffer containing 5% glycerol (80 mM PIPES, 2 mM GTP, 2 mM MgCl2, and 0.5 mM EGTA, pH 6.9). Compounds were diluted in EM buffer to final concentrations of 50, 25, 10, 5, and 2.5 μM and added to a pre-warmed 384-well plate, followed by pre-incubation at 37 °C. Subsequently, 14 μL of the tubulin-GTP mixture was added to each well containing the test compounds. Tubulin polymerization was monitored by measuring absorbance at 340 nm every minute for 60 min. […] Each assay was performed in triplicate.
Absorbance at 340 nm was determined every 1 min.

Row | Compound | KD [1] | Kd [1] | IC50 (MCF-7 cells) | IC50 (MDA-MB-231 cells) | IC50 (A549 cells) | IC50 (HeLa cells) | IC50 (A375 cells) | IC50 (B16-F10 cells) | IC50 [2]
1 | COc1cc(-n2ccc3ccc(-c4cccc(OC(F)(F)F)c4)cc32)cc(OC)c1OC [3h, 6-(3-(trifluoromethoxy)phenyl)-1-(3,4,5-trimethoxyphenyl)-1H-indole] | undetectable binding | > 200 µM | > 100 µM | > 100 µM | > 100 µM | > 100 µM | > 100 µM | > 100 µM | –
2 | COc1cc(-n2ccc3ccc(-c4ccc(C#N)cc4)cc32)cc(OC)c1OC [3m, 4-(1-(3,4,5-trimethoxyphenyl)-1H-indol-6-yl)benzonitrile] | undetectable binding | > 200 µM | > 100 µM | > 100 µM | > 100 µM | > 100 µM | > 100 µM | > 100 µM | –
3 | COc1cc(-n2ccc3ccc(-c4ccccc4C(C)C)cc32)cc(OC)c1OC [3f, 6-(2-isopropylphenyl)-1-(3,4,5-trimethoxyphenyl)-1H-indole] | – | 47 ± 5.62 µM | 17.4 ± 0.35 µM | 21.37 ± 0.12 µM | 87.4 ± 3.45 µM | 41.8 ± 1.11 µM | 21.1 ± 1.17 µM | 6.67 ± 0.29 µM | –
4 | COc1cc(-n2ccc3ccc(-c4ccccc4)cc32)cc(OC)c1OC [3a, 6-phenyl-1-(3,4,5-trimethoxyphenyl)-1H-indole] | – | 39 ± 2.6 µM | 10.1 ± 0.68 µM | 78.92 ± 0.57 µM | 36.6 ± 1.78 µM | > 100 µM | 1.16 ± 0.12 µM | 45.4 ± 1.11 µM | –
5 | COc1cc(-n2ccc3ccc(-c4cccc(C)c4)cc32)cc(OC)c1OC [3c, 6-(m-tolyl)-1-(3,4,5-trimethoxyphenyl)-1H-indole] | low micromolar range | 23 ± 2.12 µM | 9.15 ± 0.21 µM | 37.7 ± 0.89 µM | 92.4 ± 8.58 µM | 66.5 ± 6.21 µM | 53.2 ± 4.06 µM | 59.2 ± 5.86 µM | –
6 | COc1cc(-n2ccc3ccc(-c4ccccc4C#N)cc32)cc(OC)c1OC [3l, 2-(1-(3,4,5-trimethoxyphenyl)-1H-indol-6-yl)benzonitrile] | low micromolar range | 26 ± 3.38 µM | > 100 µM | > 100 µM | > 100 µM | > 100 µM | > 100 µM | > 100 µM | –
7 | COc1cc(-n2ccc3ccc(-c4ccc(Oc5ccccc5)cc4)cc32)cc(OC)c1OC [3o, 6-(4-Phenoxyphenyl)-1-(3,4,5-trimethoxyphenyl)-1H-indole] | – | 31 ± 3.41 µM | > 100 µM | > 100 µM | > 100 µM | > 100 µM | > 100 µM | > 100 µM | –
8 | COc1cc(-n2ccc3ccc(-c4cccc(C#N)c4)cc32)cc(OC)c1OC [3b, 3-(1-(3,4,5-trimethoxyphenyl)-1H-indol-6-yl)benzonitrile] | low micromolar range | 29 ± 4.1 µM | 3.33 ± 0.28 µM | 42.9 ± 3.13 µM | 41.2 ± 3.42 µM | 38.5 ± 2.25 µM | 27.5 ± 2.5 µM | 3.78 ± 0.14 µM | –
9 | COc1cc(-n2ccc3ccc(-c4nc5ccccc5s4)cc32)cc(OC)c1OC [3p, 2-(1-(3,4,5-trimethoxyphenyl)-1H-indol-6-yl)benzo[d]thiazole] | undetectable binding | > 200 µM | > 100 µM | > 100 µM | > 100 µM | > 100 µM | > 100 µM | > 100 µM | –
10 | CCc1ccccc1-c1ccc2ccn(-c3cc(OC)c(OC)c(OC)c3)c2c1 [3d, 6-(2-ethylphenyl)-1-(3,4,5-trimethoxyphenyl)-1H-indole] | low micromolar range | 24 ± 2.13 µM | 34.2 ± 1.62 µM | 23.4 ± 0.44 µM | 60.2 ± 4.17 µM | 46.6 ± 3.65 µM | 24.84 ± 0.16 µM | 6.49 ± 0.4 µM | –
11 | COc1cc(-n2ccc3ccc(-c4ccc(C(C)C)cc4)cc32)cc(OC)c1OC [3k, 6-(4-isopropylphenyl)-1-(3,4,5-trimethoxyphenyl)-1H-indole] | undetectable binding | > 200 µM | > 100 µM | > 100 µM | > 100 µM | > 100 µM | > 100 µM | > 100 µM | –
12 | COc1cc(-n2ccc3ccc(-c4ccc(SC)cc4)cc32)cc(OC)c1OC [3j, 6-(4-(methylthio)phenyl)-1-(3,4,5-trimethoxyphenyl)-1H-indole] | undetectable binding | > 200 µM | > 100 µM | > 100 µM | > 100 µM | > 100 µM | > 100 µM | > 100 µM | –
13 | COc1cc(-n2ccc3ccc(Cl)cc32)cc(OC)c1OC [H1] | – | – | – | – | – | – | – | – | 101 µM
14 | COc1cc(-n2ccc3ccc(-c4ccc(C#N)cc4F)cc32)cc(OC)c1OC [3n, 3-fluoro-4-(1-(3,4,5-trimethoxyphenyl)-1H-indol-6-yl)benzonitrile] | – | 220 ± 30.8 µM | 14.2 ± 0.51 µM | 41.4 ± 1.21 µM | 48 ± 2.56 µM | 65 ± 3.2 µM | 16.1 ± 0.38 µM | 68.9 ± 3.17 µM | –
15 | CCCCc1ccc(-c2ccc3ccn(-c4cc(OC)c(OC)c(OC)c4)c3c2)cc1 [3i, 6-(4-butylphenyl)-1-(3,4,5-trimethoxyphenyl)-1H-indole] | undetectable binding | > 200 µM | > 100 µM | > 100 µM | > 100 µM | > 100 µM | > 100 µM | > 100 µM | –
16 | CCc1ccc(-c2ccc3ccn(-c4cc(OC)c(OC)c(OC)c4)c3c2)cc1 [3e, 6-(4-ethylphenyl)-1-(3,4,5-trimethoxyphenyl)-1H-indole] | – | 110 ± 14.5 µM | > 100 µM | > 100 µM | > 100 µM | > 100 µM | > 100 µM | > 100 µM | –
